What is called IC50 is the concentration that inhibits the measured activity by half.

The values that follow come from paper PMC6429710, “Structure–activity relationships in a series of antiplasmodial thieno[2,3-b]pyridines” (Malaria Journal, 2019).

The target of data set [1] is T1, PfGSK-3 (Plasmodium falciparum, UniProt O77344).
T1 construct: 6xHis; made in house; host or cells: Escherichia coli C41
T1 sequence (O77344 1-440): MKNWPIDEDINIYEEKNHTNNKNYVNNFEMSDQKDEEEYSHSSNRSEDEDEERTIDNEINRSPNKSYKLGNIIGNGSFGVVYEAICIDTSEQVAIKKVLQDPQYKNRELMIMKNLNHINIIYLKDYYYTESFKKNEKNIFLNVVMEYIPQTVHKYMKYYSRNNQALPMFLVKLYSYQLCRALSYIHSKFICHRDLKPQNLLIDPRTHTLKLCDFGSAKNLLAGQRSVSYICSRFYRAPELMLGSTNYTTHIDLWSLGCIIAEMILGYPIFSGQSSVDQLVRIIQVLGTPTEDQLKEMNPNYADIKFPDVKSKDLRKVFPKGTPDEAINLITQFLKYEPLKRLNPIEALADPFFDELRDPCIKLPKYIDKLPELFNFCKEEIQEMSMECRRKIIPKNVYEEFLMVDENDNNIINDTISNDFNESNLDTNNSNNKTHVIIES
The data set is described as follows: biochemical. It counts as biochemical. As to the method:
PfGSK-3 was cloned into pOPIN F expression vector [41] using ligation independent cloning (InFusion, Takara Clontech). Expression vector was transformed into Escherichia coli C41 and expression of recombinant PfGSK3-6xHis was induced by incubation with 1 mM IPTG at 16 °C overnight.
Kinase activity was measured using Kinase-Glo Plus Luminescent Kinase Assay (Promega). 20 ng recombinant GSK-3 were incubated for 30 min at 30 °C in the presence of 12 μM GS-1 peptide substrate ([…]pSEDEEE, pS stands for phosphorylated serine, Biaffin GmbH & Co KG/proteinkinase.de) and 6 μM ATP (ultra pure, Promega) in a total volume of 5 μL kinase reaction buffer (40 mM Tris/HCl pH 7.5; 20 mM MgCl2; 0.1 mg/mL BSA). Kinase reaction mix was transferred to a solid white 384 well plate (NUNC, Thermo Scientific) and kinase reaction was stopped by adding 5 μL RT Kinase-Glo reagent. After 10 min luminescence was measured in an EnVision multilabel plate reader (Perkin Elmer, integration time 0.5 s/well). […] All samples were normalized to a negative control (reaction without kinase). Data points were plotted into Graphpad Prism, normalized to a DMSO control and IC50 values were calculated using nonlinear regression.

The subject of data set [2] is HEK293T cells. Nature of the data set: Cytotoxicity assay on HEK293 cells (PrestoBlue viability). The data set is classed as cell-based, human. Conditions: cell viability, 48 h; mean of six determinations, range in brackets; read-out: IC50 [µM], HEK 293T. On the procedure: HEK293T cells were seeded into a solid black flat bottom 96 well plate (2.5 × 10^4 cells/well) in 200 μL Dulbecco Modified Eagle Medium (DMEM) supplemented with 10% fetal bovine serum and 1% Pen/Strep (final concentration of 100 U/mL Penicillin and 100 μg/mL Streptomycin). Cells were incubated at 37 °C under 5% CO2. After 18 h the supernatant was removed and fresh DMEM containing serial dilutions of compounds was added. Compounds were solubilized in DMSO (final DMSO concentration in HEK293T culture was 0.5%.) Wells containing 0.5% DMSO served as a negative control. Plates were incubated for further 48 h at 37 °C under 5% CO2. To monitor cell viability the supernatant was removed and cells were incubated with 200 μL 10% PrestoBlue (Invitrogen) in PBS at 37 °C. After 30 min fluorescence (λex = 560 nm, λem = 590 nm) was measured in an EnVision multilable plate reader (Perkin Elmer, integration time 0.1 s/well). Data points were plotted into Graphpad Prism, normalized to the DMSO control and IC50 values were calculated using nonlinear regression.

The subject of data set [3] is asexual erythrocytic stages of transgenic NF54-luc P. falciparum. The data set is described as follows: Luciferase-based viability screening for antiplasmodial activity. The data set is classed as cell-based, Plasmodium falciparum. Conditions: 48 h. On the procedure:
For the luciferase-based viability assays, asexual erythrocytic stages of transgenic NF54-luc P. falciparum were used. These parasites constitutively express high luciferase levels. The parasites were cultured as described previously. Parasite cultures with parasitaemia of 0.5–1% were dispensed in triplicate into white 96-well flat-bottom plates (each well contains 250 µL) (NUNC, Roskilde, Denmark) and incubated in the presence of 3 µM test compounds for 48 h (37 °C, 90% N2, 5% CO2, and 5% O2). 0.01% DMSO was included in the untreated infected RBC cultures as negative control, since the compounds stock initially was diluted in DMSO and each treatment well also contained 0.01% DMSO. Subsequently, 100 µL RPMI1640 media was removed from each well and a 100 µL volume of the Bright-Glo® substrate solution was added to each well. The resultant cleavage product of the reaction, light, was measured using a […] luminometer (Thermo), to ascertain viable parasites. Untreated cultures were used as negative controls and to calculate the inhibition rate (0% inhibition of parasite growth). Experiments were performed in triplicate and were repeated as a whole at least twice. Blasticidin (Sigma-Aldrich, St. Louis, MO, USA), used for selection of transfected parasites, was included as a positive control on each plate and gave > 90% inhibition of parasite growth at concentration 2 µg/mL. […] For active compounds IC50 values were determined from dose–response curves. Calculation of parasite growth inhibition, of the IC50 values and statistical analysis were carried out using GraphPad Prism Version 6.0b (GraphPad Software, Inc. San Diego, CA).

The nature of data set [4]: Kinetic solubility by laser nephelometry. Conditions: aqueous phosphate buffer pH 7.4, 1% DMSO, 25 °C, mean ± standard deviation. It counts as physicochemical. On the procedure:
Kinetic solubility indicates the solubility of the most rapidly precipitating form. Kinetic solubilities of 1 and 4h were determined by laser nephelometry using the […] nephelometer (BMG LabTech, Ortenberg, Germany) and F-bottom transparent 96-well plates. The instrument uses red laser light (635 nm, 80% intensity), which passes through the 96-well plate and which is scattered by turbid suspensions. Each compound was measured six times at 25 °C by preparing three independent stock solutions in concentrations of 5 to 10 mM in DMSO. From each stock solution two independent dilution series were prepared. Based on preliminary experiments, dilution concentrations were chosen such that at least five to six concentrations below and above the expected point of precipitation were recorded. To the 96-well plate containing 198 μL aqueous phosphate buffer at pH 7.4, 2 μL of each dilution sample in DMSO was added and shaken for 10 s. at 700 rpm (double orbital). […] The pH was adjusted by adding sulfuric acid. First, the plates were scanned without content to quantify the background, which was later subtracted from the obtained values of each individual well. As blank, 2 μL of neat DMSO was added to the phosphate buffer. Close to the point of precipitation, particle concentration can be assumed to be proportional to the intensity of scattered light. […]

Molecules are shown by their SMILES.

Consider `CN(C)CCN(C)c1ccc(-c2c(C#N)c(N)nc3sc(C(=O)c4cccc(Cl)c4)c(N)c23)c(Cl)c1` [4h], for which the IC50 in data set [1] (6 µM ATP, mean of three determinations, range in brackets, read-out: IC50 [µM], PfGSK-3 (Kinase Glo Plus)) turned out to be 0.72 µM; in data set [2], 5.56 µM; in data set [3] (from dose-response curves, read-out: IC50 [µM], PfNF54-Luc), 1.2 µM. Moreover, in data set [1] (Kinase Glo Plus assay, PfGSK-3 versus HsGSK-3), the “selectivity index plasmodial versus human GSK-3” value is on record as 56. For the same molecule, the “% inhibition ± SD, PfNF54-Luc at 3 µM” value in data set [3] (3 µM test compound, luciferase readout, ± SD) turned out to be 99.9 ± 0.1%. In data set [4], the “S0 pH 7.4, exp (kinetic solubility)” value is 4.8 ± 0.9 µM.
